# Measurements taken from ChEMBL document CHEMBL5214990, “Novel Aryl Alkamidazole Derivatives as Multifunctional Antifungal Inhibitors: Design, Synthesis, and Biological Evaluation” (J Med Chem, 2022).
# Calls of active or inactive are those of the source. The rule behind the calls is not given here.
# Tests used:
# [1] = test system: Candida albicans; assay: Antifungal activity against Candida albicans infected in mouse assessed as reduction in necrotic cell fragments in intercellular spaces of the infection region at 20 mg/kg, ip administered on days 2,4,6,8,10,12 and measured on day 14 by hematoxyin-eosin staining based analysis; type: functional, organism-based; conditions: time 13.0 day
# [2] = test system: Candida albicans; assay: Antifungal activity against Candida albicans infected in mouse assessed as disappearance of nuclear aggregation in the infection region at 20 mg/kg, ip administered on days 2,4,6,8,10,12 and measured on day 14 by hematoxyin-eosin staining based analysis; type: functional, organism-based; conditions: time 13.0 day
# [3] = test system: Candida albicans; assay: Antifungal activity against Candida albicans infected in mouse assessed as increase in animal's body weight at 20 mg/kg, ip administered on days 2,4,6,8,10,12 and measured on day 14; type: functional, organism-based; conditions: time 13.0 day
# [4] = target: Lanosterol 14-alpha demethylase (Candida albicans (strain SC5314 / ATCC MYA-2876) (Yeast), UniProt P10613); assay: Inhibition of CYP51 in Candida albicans ATCC SC5314 assessed as reduction in substrate consumption using lanosterol as substrate preincubated for 30 mins followed by substrate addition and measured after 60 mins by HPLC analysis
# [5] = test system: Candida albicans; assay: Induction of mitochondrial membrane depolarization in Candida albicans assessed as fungal cells with depolarized mitochondria measured after 24 hrs by JC-1 staining based flow cytometry (reference value: 3.22%); type: functional
# [6] = test system: Mus musculus; assay: Anti-inflammatory activity in mouse infected with Candida albicans assessed as reduction in COX-2 expression in infection tissues at 20 mg/kg, ip administered on days 2,4,6,8,10,12 and measured on day 14 by western blot analysis; type: functional, organism-based; conditions: time 13.0 day
# [7] = test system: Candida albicans; assay: Antifungal activity against Candida albicans assessed as inhibition of fungal cell proliferation by measuring decrease in fungal cell density measured after 24 hrs; type: functional, organism-based
# [8] = test system: Candida albicans; assay: Antifungal activity against Candida albicans infected in mouse assessed as reduction in fungal endogenous infection symptoms at 20 mg/kg, ip administered on days 2,4,6,8,10,12 and measured on day 14 by hematoxylin-eosin staining based analysis; type: functional, organism-based; conditions: time 13.0 day
# [9] = test system: Mus musculus; assay: Anti-inflammatory activity in mouse infected with Candida albicans assessed as reduction in IL-6R expression in spleen at 20 mg/kg, ip administered on days 2,4,6,8,10,12 and measured on day 14 by immunohistochemical analysis; type: functional, organism-based; conditions: time 13.0 day
# [10] = test system: Candida albicans; assay: Antifungal activity against Candida albicans infected in mouse assessed as reduction in necrotic cell fragments in intercellular spaces of the infection region at 20 mg/kg, ip administered on days 2,4,6,8,10,12 and measured on day 14 by GMS staining based analysis; type: functional, organism-based; conditions: time 13.0 day
# [11] = test system: Candida albicans; assay: Antifungal activity against Candida albicans infected in mouse assessed as reduction in total amount of fungal cells in infection region at 20 mg/kg, ip administered on days 2,4,6,8,10,12 and measured on day 14 by hematoxyin-eosin staining based analysis; type: functional, organism-based; conditions: time 13.0 day
# [12] = test system: Candida albicans; assay: Antifungal activity against fluconazole-resistant Candida albicans 901 assessed as inhibition of fungal growth measured after 72 hrs by CLSI based liquid medium dilution method; type: functional
# [13] = test system: Candida albicans; assay: Induction of apoptosis in Candida albicans assessed as necrotic cells measured after 24 hrs by Annexin V-FITC/PI staining based flow cytometry (reference value: 3.37%); type: functional
# [14] = test system: Aspergillus fumigatus; assay: Antifungal activity against Aspergillus fumigatus KM8001 assessed as inhibition of fungal growth measured after 72 hrs by CLSI based liquid medium dilution method; type: functional
# [15] = test system: Candida albicans; assay: Antifungal activity against Candida albicans infected in mouse assessed as reduction in fungal proliferation in the infection region at 20 mg/kg, ip administered on days 2,4,6,8,10,12 and measured on day 14 by GMS staining based analysis; type: functional, organism-based; conditions: time 13.0 day
# [16] = test system: Candida albicans; assay: Induction of apoptosis in Candida albicans assessed as early apoptotic cells measured after 24 hrs by Annexin V-FITC/PI staining based flow cytometry (reference value: 0.46%); type: functional
# [17] = test system: Candida albicans; assay: Antifungal activity against Candida albicans infected in mouse assessed as reduction in fungal proliferation in the infection region at 20 mg/kg, ip administered on days 2,4,6,8,10,12 and measured on day 14 by hematoxylin-eosin staining based analysis; type: functional, organism-based; conditions: time 13.0 day
# [18] = Hepatotoxicity in mouse infected with Candida albicans assessed as plasma ALT level at 20 mg/kg, ip administered on days 2,4,6,8,10,12 and measured on day 14 (reference value: 33.5 +/-3.4 IU/L); type: toxicity, organism-based; conditions: in vivo, 312 h, time 13 day
# [19] = test system: Mus musculus; assay: Anti-inflammatory activity in mouse infected with Candida albicans assessed as reduction in NLRP3 expression in infection tissues at 20 mg/kg, ip administered on days 2,4,6,8,10,12 and measured on day 14 by western blot analysis; type: functional, organism-based; conditions: time 13.0 day
# [20] = test system: Candida albicans; assay: Antifungal activity against Candida albicans infected in mouse assessed as reduction in total amount of fungal cells in infection region at 20 mg/kg, ip administered on days 2,4,6,8,10,12 and measured on day 14 by GMS staining based analysis; type: functional, organism-based; conditions: time 13.0 day
# [21] = test system: Mus musculus; assay: Anti-inflammatory activity in mouse infected with Candida albicans assessed as reduction in NF-kappaB p65 expression in spleen at 20 mg/kg, ip administered on days 2,4,6,8,10,12 and measured on day 14 by immunohistochemical analysis; type: functional, organism-based; conditions: time 13.0 day
# [22] = test system: Mus musculus; assay: Anti-inflammatory activity in mouse infected with Candida albicans assessed as reduction in PD-L1 expression in spleen at 20 mg/kg, ip administered on days 2,4,6,8,10,12 and measured on day 14 by immunohistochemical analysis; type: functional, organism-based; conditions: time 13.0 day
# [23] = test system: Mus musculus; assay: Anti-inflammatory activity in mouse infected with Candida albicans assessed as reduction in COX-2 expression in spleen at 20 mg/kg, ip administered on days 2,4,6,8,10,12 and measured on day 14 by immunohistochemical analysis; type: functional, organism-based; conditions: time 13.0 day
# [24] = test system: Mus musculus; assay: Anti-inflammatory activity in mouse infected with Candida albicans assessed as reduction in IL-6R expression in infection tissues at 20 mg/kg, ip administered on days 2,4,6,8,10,12 and measured on day 14 by western blot analysis; type: functional, organism-based; conditions: time 13.0 day
# [25] = test system: Candida albicans; assay: Antifungal activity against fluconazole-resistant Candida albicans 904 assessed as inhibition of fungal growth measured after 72 hrs by CLSI based liquid medium dilution method; type: functional
# [26] = test system: Candida albicans; assay: Antifungal activity against fluconazole-resistant Candida albicans 632 assessed as inhibition of fungal growth measured after 72 hrs by CLSI based liquid medium dilution method; type: functional
# [27] = test system: Mus musculus; assay: Anti-inflammatory activity in mouse infected with Candida albicans assessed as reduction in NF-kappaB p65 expression in infection tissues at 20 mg/kg, ip administered on days 2,4,6,8,10,12 and measured on day 14 by western blot analysis; type: functional, organism-based; conditions: time 13.0 day
# [28] = test system: Pichia kudriavzevii; assay: Antifungal activity against Candida krusei ATCC 6258 assessed as inhibition of fungal growth measured after 72 hrs by CLSI based liquid medium dilution method; type: functional
# [29] = test system: Candida albicans; assay: Induction of apoptosis in Candida albicans assessed as late apoptotic cells measured after 24 hrs by Annexin V-FITC/PI staining based flow cytometry (reference value: 0.44%); type: functional
# [30] = test system: Candida albicans; assay: Antifungal activity against Candida albicans infected in mouse assessed as disappearance of nuclear aggregation in the infection region at 20 mg/kg, ip administered on days 2,4,6,8,10,12 and measured on day 14 by GMS staining based analysis; type: functional, organism-based; conditions: time 13.0 day
# Chain of Lanosterol 14-alpha demethylase (P10613 whole entry): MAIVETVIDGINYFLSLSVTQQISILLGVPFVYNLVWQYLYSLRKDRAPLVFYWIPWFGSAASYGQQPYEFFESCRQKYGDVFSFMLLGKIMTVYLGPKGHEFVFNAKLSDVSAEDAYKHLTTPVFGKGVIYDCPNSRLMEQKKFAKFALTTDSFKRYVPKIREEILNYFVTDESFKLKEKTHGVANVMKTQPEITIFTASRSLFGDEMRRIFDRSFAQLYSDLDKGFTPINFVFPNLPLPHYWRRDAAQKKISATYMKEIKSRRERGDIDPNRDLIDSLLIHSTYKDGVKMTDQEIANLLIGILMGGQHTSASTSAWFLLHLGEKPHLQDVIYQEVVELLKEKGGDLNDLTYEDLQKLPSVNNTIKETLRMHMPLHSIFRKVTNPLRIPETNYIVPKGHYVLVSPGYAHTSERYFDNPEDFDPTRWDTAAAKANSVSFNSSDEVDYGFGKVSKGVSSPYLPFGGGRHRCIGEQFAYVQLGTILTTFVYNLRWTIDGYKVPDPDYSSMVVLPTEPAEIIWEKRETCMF
SMILES,Activity [1],Activity [2],Activity [3],IC50 [4],Activity [5],Activity [6],Activity [7],Activity [8],Activity [9],Activity [10],Activity [11],MIC50 [12],Activity [13],MIC50 [14],Activity [15],Activity [16],Activity [17],Activity [18],Activity [19],Activity [20],further results
OC(Cn1cncn1)(Cn1cncn1)c1ccc(F)cc1F [FLUCONAZOLE],Active,Active,Active,110 nM,19.1%,Active,Active,Active,Active,Active,Active,> 8 µg/mL,13%,> 8 µg/mL,Active,12.3%,Active,46.1 IU/L,Active,Active,Activity [21]: Active; Activity [22]: Active; Activity [23]: Active; Activity [24]: Active; MIC50 [25]: > 8 µg/mL; MIC50 [26]: > 8 µg/mL; Activity [27]: Active; MIC50 [28]: 1 µg/mL; Activity [29]: 5.96%; Activity [30]: Active
C[C@H](C(=O)N(C)CC(O)(Cn1ccnc1)c1ccc(Cl)cc1Cl)c1cccc(C(=O)c2ccccc2)c1 (stereo not given in full),Active,Active,Active,160 nM,66.6%,Active,Active,Active,Active,Active,Active,0.5 µg/mL,26%,2 µg/mL,Active,2.13%,Active,43.2 IU/L,Active,Active,Activity [21]: Active; Activity [22]: Active; Activity [23]: Active; Activity [24]: Active; MIC50 [25]: 1 µg/mL; MIC50 [26]: 2 µg/mL; Activity [27]: Active; MIC50 [28]: 0.125 µg/mL; Activity [29]: 28.1%; Activity [30]: Active
C[C@H](C(=O)N(C)CC(O)(Cn1ccnc1)c1ccc(Cl)cc1)c1ccc(-c2ccccc2)c(F)c1 (stereo not given in full),Active,Active,Active,190 nM,67.3%,Active,Active,Active,Active,Active,Active,0.5 µg/mL,34.3%,2 µg/mL,Active,1.8%,Active,42.4 IU/L,Active,Active,Activity [21]: Active; Activity [22]: Active; Activity [23]: Active; Activity [24]: Active; MIC50 [25]: 2 µg/mL; MIC50 [26]: 4 µg/mL; Activity [27]: Active; MIC50 [28]: 0.25 µg/mL; Activity [29]: 19.4%; Activity [30]: Active
